# Results taken from US6858589B2, “Methods of and compositions for potentiating the action of agents active on cell wall sites of the susceptible bacteria” (priority 1996, dated 2005).
# Legend:
# E. coli NCTC 10418 = experiment: E. coli counts after gentamicin profile (peak 4 mg/l, then reconstituted maintained concentration); format: cell-based, Escherichia coli
# Procedure: (§1) The aminoglycoside reached a peak concentration of 4 mg/l 30 minutes post-dose and was removed from the E. coli culture by washing. Medium containing 0, 2, 2.5 and 3 mg/l gentamicin was reconstituted and added to the culture at 1 hour after initial exposure to the aminoglycoside (n=6).
# The experimental work described herein involved testing bacterial response while changing aminoglycoside concentrations with time in the test tube, and mimics closely measurements made in man under clinical conditions (Bastone E B, Li S C, Ioannides-Demos L L, Spicer J., McLean A J, “Kill kinetics and regrowth patterns of E. coli exposed to gentamicin concentration-time profiles simulating in vivo bolus or infusion dosing”, Antimicrob Agents Chemother. 37:914-917, 1993).
# With each antibiotic, concentration-time profiles similar to those observed in the blood of clinical patients following conventional intravenous dosing of an aminoglycoside (gentamicin) and pump-driven profiles of gentamicin and cephalosporin (cephazolin) were attained. The concentration-time profiles for each drug class have the general form shown in FIG. IA and FIG. IIIA of the accompanying drawings. Additionally a gentamicin profile of the form shown in FIG. IIIA was generated, which reached a peak of 12 mg/l over 3 hours, was maintained at 12 mg/l for a further hour, then was reconstituted to a range of steady-state concentrations (0, 0.5, 1.0, 2.0, 3.0, 4.0 mg/l) to yield the experimental results shown in Table 4. […]
# [1] = Gentamicin concentration-time profile measured in the in vitro culture medium
# Procedure: as §1
# With each antibiotic, concentration-time profiles similar to those observed in the blood of clinical patients following conventional intravenous dosing of an aminoglycoside (gentamicin) and pump-driven profiles of gentamicin and cephalosporin (cephazolin) were attained. The concentration-time profiles for each drug class have the general form shown in FIG. IA and FIG. IIIA of the accompanying drawings. Additionally a gentamicin profile of the form shown in FIG. IIIA was generated, which reached a peak of 12 mg/l over 3 hours, was maintained at 12 mg/l for a further hour, then was reconstituted to a range of steady-state concentrations (0, 0.5, 1.0, 2.0, 3.0, 4.0 mg/l) to yield the experimental results shown in Table 4.
# [2] = in vitro profile: peak 4 mg/liter, reconstituted to 3.0 mg/liter at 1 hr, maintained 0 hr (control)
# [3] = in vitro profile: peak 4 mg/liter, reconstituted to 3.0 mg/liter at 1 hr, maintained 2 hr
# [4] = in vitro profile: peak 4 mg/liter, reconstituted to 3.0 mg/liter at 1 hr, maintained 4 hr
# [5] = in vitro profile: peak 4 mg/liter, reconstituted to 3.0 mg/liter at 1 hr, maintained 8 hr
# [6] = in vitro profile: post-distribution peak 4 mg/liter, reconstituted at 1 hr to 0 mg/liter
# [7] = in vitro profile: post-distribution peak 4 mg/liter, reconstituted at 1 hr to 2.0 mg/liter
# [8] = in vitro profile: post-distribution peak 4 mg/liter, reconstituted at 1 hr to 2.5 mg/liter
# [9] = in vitro profile: post-distribution peak 4 mg/liter, reconstituted at 1 hr to 3.0 mg/liter
substance,measurement,setting,value
gentamicin,BACTERIAL COUNTS,"E. coli NCTC 10418; peak 4 mg/liter, reconstituted to 3.0 mg/liter at 1 hr, maintained 0 hr (control), 3 hr",3.05 ± 0.33 log ^10 (CFU/mL)
same,BACTERIAL COUNTS,"E. coli NCTC 10418; peak 4 mg/liter, reconstituted to 3.0 mg/liter at 1 hr, maintained 0 hr (control), 11 hr",8.89 ± 0.20 log ^10 (CFU/mL)
same,BACTERIAL COUNTS,"E. coli NCTC 10418; peak 4 mg/liter, reconstituted to 3.0 mg/liter at 1 hr, maintained 0 hr (control), 25 hr",9.07 ± 0.12 log ^10 (CFU/mL)
same,BACTERIAL COUNTS,"E. coli NCTC 10418; peak 4 mg/liter, reconstituted to 3.0 mg/liter at 1 hr, maintained 0 hr (control), 49 hr",9.01 ± 0.06 log ^10 (CFU/mL)
same,BACTERIAL COUNTS,"E. coli NCTC 10418; peak 4 mg/liter, reconstituted to 3.0 mg/liter at 1 hr, maintained 2 hr, 3 hr",0.17 ± 0.41 log ^10 (CFU/mL)
same,BACTERIAL COUNTS,"E. coli NCTC 10418; peak 4 mg/liter, reconstituted to 3.0 mg/liter at 1 hr, maintained 2 hr, 11 hr",0.55 ± 0.61 log ^10 (CFU/mL)
same,BACTERIAL COUNTS,"E. coli NCTC 10418; peak 4 mg/liter, reconstituted to 3.0 mg/liter at 1 hr, maintained 2 hr, 25 hr",7.95 ± 0.54 log ^10 (CFU/mL)
same,BACTERIAL COUNTS,"E. coli NCTC 10418; peak 4 mg/liter, reconstituted to 3.0 mg/liter at 1 hr, maintained 2 hr, 49 hr",8.89 ± 0.19 log ^10 (CFU/mL)
same,BACTERIAL COUNTS,"E. coli NCTC 10418; peak 4 mg/liter, reconstituted to 3.0 mg/liter at 1 hr, maintained 4 hr, 3 hr",0.17 ± 0.41 log ^10 (CFU/mL)
same,BACTERIAL COUNTS,"E. coli NCTC 10418; peak 4 mg/liter, reconstituted to 3.0 mg/liter at 1 hr, maintained 4 hr, 11 hr",0.17 ± 0.41 log ^10 (CFU/mL)
same,BACTERIAL COUNTS,"E. coli NCTC 10418; peak 4 mg/liter, reconstituted to 3.0 mg/liter at 1 hr, maintained 4 hr, 25 hr",5.18 ± 4.02 log ^10 (CFU/mL)
same,BACTERIAL COUNTS,"E. coli NCTC 10418; peak 4 mg/liter, reconstituted to 3.0 mg/liter at 1 hr, maintained 4 hr, 49 hr",5.99 ± 4.64 log ^10 (CFU/mL)
same,BACTERIAL COUNTS,"E. coli NCTC 10418; peak 4 mg/liter, reconstituted to 3.0 mg/liter at 1 hr, maintained 8 hr, 3 hr",0.33 ± 0.52 log ^10 (CFU/mL)
same,BACTERIAL COUNTS,"E. coli NCTC 10418; peak 4 mg/liter, reconstituted to 3.0 mg/liter at 1 hr, maintained 8 hr, 11 hr",NGD
same,BACTERIAL COUNTS,"E. coli NCTC 10418; peak 4 mg/liter, reconstituted to 3.0 mg/liter at 1 hr, maintained 8 hr, 25 hr",NGD
same,BACTERIAL COUNTS,"E. coli NCTC 10418; peak 4 mg/liter, reconstituted to 3.0 mg/liter at 1 hr, maintained 8 hr, 49 hr",NGD
same,BACTERIAL COUNTS,"E. coli NCTC 10418; post-distribution peak 4 mg/liter, reconstituted at 1 hr to 0 mg/liter, 3 hr",3.96 ± 0.70 log ^10 (CFU/mL)
same,BACTERIAL COUNTS,"E. coli NCTC 10418; post-distribution peak 4 mg/liter, reconstituted at 1 hr to 0 mg/liter, 11 hr",9.24 ± 0.34 log ^10 (CFU/mL)
same,BACTERIAL COUNTS,"E. coli NCTC 10418; post-distribution peak 4 mg/liter, reconstituted at 1 hr to 0 mg/liter, 25 hr",9.15 ± 0.17 log ^10 (CFU/mL)
same,BACTERIAL COUNTS,"E. coli NCTC 10418; post-distribution peak 4 mg/liter, reconstituted at 1 hr to 0 mg/liter, 49 hr",8.93 ± 0.12 log ^10 (CFU/mL)
same,BACTERIAL COUNTS,"E. coli NCTC 10418; post-distribution peak 4 mg/liter, reconstituted at 1 hr to 2.0 mg/liter, 3 hr",1.92 ± 1.21 log ^10 (CFU/mL)
same,BACTERIAL COUNTS,"E. coli NCTC 10418; post-distribution peak 4 mg/liter, reconstituted at 1 hr to 2.0 mg/liter, 11 hr",7.76 ± 1.06 log ^10 (CFU/mL)
same,BACTERIAL COUNTS,"E. coli NCTC 10418; post-distribution peak 4 mg/liter, reconstituted at 1 hr to 2.0 mg/liter, 25 hr",8.69 ± 0.63 log ^10 (CFU/mL)
same,BACTERIAL COUNTS,"E. coli NCTC 10418; post-distribution peak 4 mg/liter, reconstituted at 1 hr to 2.0 mg/liter, 49 hr",9.34 ± 0.27 log ^10 (CFU/mL)
same,BACTERIAL COUNTS,"E. coli NCTC 10418; post-distribution peak 4 mg/liter, reconstituted at 1 hr to 2.5 mg/liter, 3 hr",0.33 ± 0.52 log ^10 (CFU/mL)
same,BACTERIAL COUNTS,"E. coli NCTC 10418; post-distribution peak 4 mg/liter, reconstituted at 1 hr to 2.5 mg/liter, 11 hr",0.33 ± 0.52 log ^10 (CFU/mL)
same,BACTERIAL COUNTS,"E. coli NCTC 10418; post-distribution peak 4 mg/liter, reconstituted at 1 hr to 2.5 mg/liter, 25 hr",4.85 ± 3.82 log ^10 (CFU/mL)
same,BACTERIAL COUNTS,"E. coli NCTC 10418; post-distribution peak 4 mg/liter, reconstituted at 1 hr to 2.5 mg/liter, 49 hr",5.98 ± 4.63 log ^10 (CFU/mL)
same,BACTERIAL COUNTS,"E. coli NCTC 10418; post-distribution peak 4 mg/liter, reconstituted at 1 hr to 3.0 mg/liter, 3 hr",0.33 ± 0.52 log ^10 (CFU/mL)
same,BACTERIAL COUNTS,"E. coli NCTC 10418; post-distribution peak 4 mg/liter, reconstituted at 1 hr to 3.0 mg/liter, 11 hr",NGD
same,BACTERIAL COUNTS,"E. coli NCTC 10418; post-distribution peak 4 mg/liter, reconstituted at 1 hr to 3.0 mg/liter, 25 hr",NGD
same,BACTERIAL COUNTS,"E. coli NCTC 10418; post-distribution peak 4 mg/liter, reconstituted at 1 hr to 3.0 mg/liter, 49 hr",NGD
same,AUC 0-49 h,[1]; [2],3.93 ± 0.33 mg·h/L
same,Cmax,[1]; [2],6.12 ± 0.35 mg/L
same,Cmin,[1]; [2],0 mg/L
same,AUC 0-49 h,[1]; [3],124.98 ± 3.08 mg·h/L
same,Cmax,[1]; [3],6.23 ± 0.27 mg/L
same,Cmin,[1]; [3],2.45 ± 0.24 mg/L
same,AUC 0-49 h,[1]; [4],120.99 ± 6.05 mg·h/L
same,Cmax,[1]; [4],6.30 ± 0.45 mg/L
same,Cmin,[1]; [4],2.37 ± 0.34 mg/L
same,AUC 0-49 h,[1]; [5],119.78 ± 8.84 mg·h/L
same,Cmax,[1]; [5],6.37 ± 0.22 mg/L
same,Cmin,[1]; [5],2.35 ± 0.19 mg/L
same,AUC 0-49 h,[1]; [6],3.97 ± 0.09 mg·h/L
same,Cmax,[1]; [6],6.22 ± 0.33 mg/L
same,Cmin,[1]; [6],0 mg/L
same,AUC 0-49 h,[1]; [7],102.66 ± 6.91 mg·h/L
same,Cmax,[1]; [7],6.32 ± 0.25 mg/L
same,Cmin,[1]; [7],1.93 ± 0.24 mg/L
same,AUC 0-49 h,[1]; [8],124.40 ± 4.27 mg·h/L
same,Cmax,[1]; [8],6.23 ± 0.23 mg/L
same,Cmin,[1]; [8],2.47 ± 0.31 mg/L
same,AUC 0-49 h,[1]; [9],153.43 ± 11.01 mg·h/L
same,Cmax,[1]; [9],6.28 ± 0.37 mg/L
same,Cmin,[1]; [9],2.88 ± 0.23 mg/L
